Measurements as given in patent publication EP0497740B1, “Benzyloxyphenyl derivatives” (SANDOZ LTD., priority 1991, dated 1992).

Columns and labels:
[1] = system: HACAT keratinocytes; experiment: Inhibition of TGFa- or EGF-specific proliferation of HACAT keratinocytes (3H-thymidine incorporation); type: cell-based; details: test 1: HaCaT cells stimulated with recombinant human TGFa or EGF, two days
Description: 1. Inhibition of TGFa- or EGF-specific proliferation of HACAT keratinocytes:
The spontaneously immortalized aneuploid human keratinocyte HaCaT cell line, which has a transformed phenotype in vitro but remains non-tumorigenic, is grown in DMEM H21 medium supplemented with 5 % FCS and 2.5 % glutamine. 5 ml aliquots of a cell suspension adjusted to 2 x 10^5 cells/ml are seeded into 50 ml culture flasks and the cells are cultured for 2 to 3 days in DMEM medium supplemented with 5 % FCS. When 90-100 % confluence is attained cells are trypsinized, washed, suspended in KBM medium supplemented with 0.2 % dialyzed FCS (Gibco) and Ca^++ to a final concentration of 0.06 mM, and 2 x 10^4 cells are seeded into 96 wells cell culture plates. Proliferation is stimulated with recombinant human TGFa or EGF (reconstituted in 0.1 M acetic acid) at various concentrations in the presence of inhibitors. Cells are grown for two days at 37 / 5 % CO2. During the last 16 hours incorporation of ^3H-thymidine (1 µ.Ci/well) is performed. Cells are washed with ice-cold PBSdef. 3 times and trichloroacetic acid twice, solubilized in 100 µl of 0.1 N NaOH containing 1 % SDS, and radioactivity is counted. Inhibition of cell proliferation is expressed as % of the control.

[2] = system: oxazolone-induced allergic contact dermatitis; experiment: Inhibition of oxazolone-induced allergic contact dermatitis in the mouse (pinnal swelling, topical application); type: in vivo; details: test 3: mouse, two applications, concentration of 0.4 %, relative to vehicle (ethanol/acetone 7:3)
Description: 3. Inhibition of oxazolone-induced allergic contact dermatitis in the mouse
Sensitization is induced by a single application of 2 % 6 oxazolone (10 µl) onto the abdominal skin of mice (8 animals per group). Hypersensitivity reaction causing pinnal swelling is elicited by a second exposure to 2 % oxazolone applied to one pinna of each animal after 8 days.
Inhibition of pinnal swelling is achieved by two topical applications of test compound (30 minutes before and after elicitation of the challenge reaction). Efficacy is determined by the difference of pinnal weights of animals treated with the drug and with the vehicle (ethanol/acetone 7:3), respectively, and expressed in % of swelling with vehicle application alone.

SMILES	IC50 ([1]; Homo sapiens, HaCaT) [µM]	IC50 [1] [µM]	inhibition of swelling [2] [%]
O=c1c(-c2ccc(O)cc2)coc2cc(O)cc(O)c12 [genistein]	5 to 50	5	
COC(=O)c1cc(OCc2cc(OC)ccc2OC)ccc1O [Example 1, 5-(2,5-Dimethoxybenzyloxy)-2-hydroxybenzoic acid methyl ester]	< 1		46
N#CC(=Cc1ccc(O)c(O)c1)C(N)=S [AG213]		5 to 50	
